Measured values reported in ChEMBL document CHEMBL1150429, “Synthesis and biological evaluation of D-amino acid oxidase inhibitors” (J Med Chem, 2008).
Calls of active or inactive are those of the source. The calls are words filed in the database; no cut-off is given here.

Each molecule was assayed on Rattus norvegicus (assay: Increase in D-serine level in Sprague-Dawley rat plasma at 30 mg/kg, po coadministered with D-serine).
Assay type: functional, organism-based
Set-up: dose 30 mg/kg
For `Oc1noc2cc(Cl)ccc12`, the Activity was “Active”.

Each molecule was assayed on Rattus norvegicus (assay: Increase in D-serine level in Sprague-Dawley rat prefrontal cortex at 30 mg/kg, po).
Assay type: functional, organism-based
Set-up: dose 30 mg/kg
For `Oc1noc2cc(Cl)ccc12`, the Activity was “inactive”.

These molecules were tested against D-amino-acid oxidase (Sus scrofa, UniProt P00371) (assay: Inhibition of pig D-amino acid oxidase).
Chain of D-amino-acid oxidase (P00371 whole entry): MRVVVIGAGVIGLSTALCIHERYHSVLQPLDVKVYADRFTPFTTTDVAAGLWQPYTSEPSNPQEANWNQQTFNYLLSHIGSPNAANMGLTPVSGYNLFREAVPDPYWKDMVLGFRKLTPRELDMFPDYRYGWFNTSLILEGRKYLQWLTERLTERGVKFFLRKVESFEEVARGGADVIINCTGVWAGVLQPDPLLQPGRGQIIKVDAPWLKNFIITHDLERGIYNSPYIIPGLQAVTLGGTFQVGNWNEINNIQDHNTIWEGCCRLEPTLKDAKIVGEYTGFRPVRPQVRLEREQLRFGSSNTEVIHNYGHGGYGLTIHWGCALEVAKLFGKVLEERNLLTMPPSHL
`COc1noc2cc(Cl)ccc12` was tested, and the IC50 was > 100000 nM.
`Oc1noc2ccccc12` showed an IC50 of 1880 nM.
Work on `Oc1noc2ccc(Br)cc12` yielded an IC50 of 599 nM.
For `NCc1cc(=O)[nH]o1` [MUSCIMOL], the IC50 was > 100000 nM.
For `Cc1ccc2c(O)noc2c1`, the IC50 was 269 nM.
In the case of `O=c1[nH]oc2cccc(C(F)(F)F)c12`, the IC50 is reported as > 100000 nM.
`Oc1noc2c(F)cccc12` showed an IC50 of 23000 nM.
Work on `O=[N+]([O-])c1ccc2c(O)noc2c1` yielded an IC50 of 722 nM.
With `Oc1noc2cc(F)ccc12` the IC50 was 444 nM.
`Oc1noc2ccc(I)cc12` was tested, and the IC50 was 1510 nM.
With `Cc1c(C[C@H](N)C(=O)O)o[nH]c1=O` the IC50 was > 100000 nM.
`O=c1[nH]oc2ccc([N+](=O)[O-])cc12` showed an IC50 of 2950 nM.
Work on `COc1ccc2c(O)noc2c1` yielded an IC50 of 2570 nM.
With `Oc1noc2cc(Cl)ccc12` the IC50 was 188 nM.
In the case of `Oc1noc2c(F)c(C(F)(F)F)ccc12`, the IC50 is reported as > 100000 nM.
`Cc1cccc2c(O)noc12` was tested, and the IC50 was > 100000 nM.
In the case of `CCOc1ccc2c(O)noc2c1`, the IC50 is reported as > 100000 nM.
Work on `O=c1[nH]oc2cc(C(F)(F)F)ccc12` yielded an IC50 of 5000 nM.
With `Oc1noc2cccc(F)c12` the IC50 was 7820 nM.

Each molecule was assayed on Rattus norvegicus (assay: Increase in D-serine level in Sprague-Dawley rat prefrontal cortex at 30 mg/kg, po coadministered with D-serine).
Assay type: functional
With `Oc1noc2cc(Cl)ccc12` the Activity was >60%.
